Patent US11274332B2, “Methods of administering 3,4-diaminopyridine” (SERB SA, priority 2011, dated 2022)
Values joined by “and” are separate entries in the source; they are usually repeats but may differ in a detail not shown here. Equal entries are not always repeated.

Assay: Food-effect crossover study, adverse events after single 20 mg amifampridine phosphate in healthy subjects (Examples 10, 11)
Format: in vivo
Method: This was a randomized, open-label, 2-treatment, 2-period crossover study with 44 completed subjects to assess the safety, tolerability, and the effect of food on the relative bioavailability of a single dose of amifampridine phosphate.
Safety was evaluated for all subjects who take at least one dose of 3,4-DAP. Safety was evaluated by recording the incidence of adverse events (AEs), physical examination, vital signs, concomitant medications, clinical laboratory assessments, and 12-lead electrocardiogram (ECG).
Analysis for the following safety parameters was carried out on the Safety Population: AEs which included all AEs, AEs by severity, drug-related AEs, deaths, SAEs, AEs leading to study discontinuation, and most frequent AEs, standard clinical laboratory tests, vital signs, ECG measurements, routine physical examinations, and prior and concomitant medications. The cut-off for frequency of AEs reported was determined based on the data. No formal statistical testing was performed for the safety analyses; only descriptive statistics were provided. Appropriate descriptive statistics for the safety data were determined using SAS Version 9.2.
AEs were coded according to the Medical Dictionary for Regulatory Activities (MedDRA; Version 13.0). […] The occurrence of AEs was assessed continuously from the time the subject signed the VID and consent. The reporting period for non-serious AEs was from the first dose to the final study visit. The investigator determined the severity of each event and the relationship of an AE to the IP and recorded it on the source documents and AE CRF. The nature, time of onset, duration, severity, and relationship to study drug was documented, including documentation of investigator assessment and review. All events were assessed to determine if the AE was serious.
The Investigator determined the severity of each event and the event was recorded on the source documents and AE CRF. A coding of “mild” meant there was no limitation of usual activities, “moderate” meant there was some limitation of usual activities, “severe” meant there was an inability to carry out usual activities.
The reporting period for AEs that met the criteria of an SAE began from the time of signing the VID and consent form through follow-up or early termination. […] Clinical Laboratory Assessments

## Nc1ccncc1N.O=P(O)(O)O [amifampridine phosphate, 3,4-diaminopyridine phosphate]
Fed N=46
  Diarrhoea, drug-related AE: % of subjects: (0%) [0]
  Diarrhoea, drug-related AE: events: (0%) [0]
  Diarrhoea, drug-related AE: subjects: 0
  Discontinued due to adverse events: % of subjects: 2%
  Discontinued due to adverse events: events: 1
  Discontinued due to adverse events: subjects: 1
  Dizziness, drug-related AE: % of subjects: 4%
  Dizziness, drug-related AE: events: 2
  Dizziness, drug-related AE: subjects: 2
  Dysgeusia, drug-related AE: % of subjects: 4%
  Dysgeusia, drug-related AE: events: 2
  Dysgeusia, drug-related AE: subjects: 2
  Fatigue, drug-related AE: % of subjects: 7%
  Fatigue, drug-related AE: events: 3
  Fatigue, drug-related AE: subjects: 3
  Feeling Hot, drug-related AE: % of subjects: (0%) [0]
  Feeling Hot, drug-related AE: events: (0%) [0]
  Feeling Hot, drug-related AE: subjects: 0
  Flushing, drug-related AE: % of subjects: 2%
  Flushing, drug-related AE: events: 1
  Flushing, drug-related AE: subjects: 1
  Gastrointestinal Disorders Total, drug-related AE: % of subjects: 4%
  Gastrointestinal Disorders Total, drug-related AE: events: 2
  Gastrointestinal Disorders Total, drug-related AE: subjects: 2
  General Disorders and Administration Site Conditions Total, drug-related AE: % of subjects: 7%
  General Disorders and Administration Site Conditions Total, drug-related AE: events: 3
  General Disorders and Administration Site Conditions Total, drug-related AE: subjects: 3
  Headache, drug-related AE: % of subjects: 2%
  Headache, drug-related AE: events: 1
  Headache, drug-related AE: subjects: 1
  Hypoaesthesia Facial, drug-related AE: % of subjects: (0%) [0]
  Hypoaesthesia Facial, drug-related AE: events: (0%) [0]
  Hypoaesthesia Facial, drug-related AE: subjects: 0
  Hypoaesthesia Oral, drug-related AE: % of subjects: 7%
  Hypoaesthesia Oral, drug-related AE: events: 3
  Hypoaesthesia Oral, drug-related AE: subjects: 3
  Hypoaesthesia, drug-related AE: % of subjects: (0%) [0]
  Hypoaesthesia, drug-related AE: events: (0%) [0]
  Hypoaesthesia, drug-related AE: subjects: 0
  Nausea, drug-related AE: % of subjects: 2%
  Nausea, drug-related AE: events: 1
  Nausea, drug-related AE: subjects: 1
  Nervous System Disorders Total, drug-related AE: % of subjects: 37%
  Nervous System Disorders Total, drug-related AE: events: 31
  Nervous System Disorders Total, drug-related AE: subjects: 17
  Paraesthesia Oral, drug-related AE: % of subjects: 28%
  Paraesthesia Oral, drug-related AE: events: 15
  Paraesthesia Oral, drug-related AE: subjects: 13
  Paraesthesia, drug-related AE: % of subjects: 15%
  Paraesthesia, drug-related AE: events: 8
  Paraesthesia, drug-related AE: subjects: 7
  Possibly or probably related AEs, Mild: % of subjects: 46%
  Possibly or probably related AEs, Mild: events: 37
  Possibly or probably related AEs, Mild: subjects: 21
  Possibly or probably related AEs, Moderate: % of subjects: (0%) [0]
  Possibly or probably related AEs, Moderate: events: (0%) [0]
  Possibly or probably related AEs, Moderate: subjects: 0
  Possibly or probably related AEs, Severe: % of subjects: (0%) [0]
  Possibly or probably related AEs, Severe: events: (0%) [0]
  Possibly or probably related AEs, Severe: subjects: 0
  Possibly or probably related AEs, Total: % of subjects: 46%
  Possibly or probably related AEs, Total: events: 37
  Possibly or probably related AEs, Total: subjects: 21
  Serious adverse events: % of subjects: (0%) [0]
  Serious adverse events: events: (0%) [0]
  Serious adverse events: subjects: 0
  Skin and Subcutaneous Tissue Disorders Total, drug-related AE: % of subjects: (0%) [0]
  Skin and Subcutaneous Tissue Disorders Total, drug-related AE: events: (0%) [0]
  Skin and Subcutaneous Tissue Disorders Total, drug-related AE: subjects: 0
  Vascular Disorders Total, drug-related AE: % of subjects: 2%
  Vascular Disorders Total, drug-related AE: events: 1
  Vascular Disorders Total, drug-related AE: subjects: 1
Fed N=46, phosphate
  All treatment emergent AEs, Total: subjects: 24 and 23
Female N=16
  Abdominal Pain Upper, drug-related AE: % of subjects: 6%
  Abdominal Pain Upper, drug-related AE: events: 1
  Abdominal Pain Upper, drug-related AE: subjects: 1
  Abdominal Pain, drug-related AE: % of subjects: 13%
  Abdominal Pain, drug-related AE: events: 2
  Abdominal Pain, drug-related AE: subjects: 2
  Abdominal Tenderness, drug-related AE: % of subjects: 6%
  Abdominal Tenderness, drug-related AE: events: 1
  Abdominal Tenderness, drug-related AE: subjects: 1
  Acne, drug-related AE: % of subjects: (0%) [0]
  Acne, drug-related AE: events: (0%) [0]
  Acne, drug-related AE: subjects: 0
  All treatment emergent AEs, Mild: % of subjects: 75%
  All treatment emergent AEs, Mild: events: 41
  All treatment emergent AEs, Mild: subjects: 12
  All treatment emergent AEs, Moderate: % of subjects: 13%
  All treatment emergent AEs, Moderate: events: 2
  All treatment emergent AEs, Moderate: subjects: 2
  All treatment emergent AEs, Severe: % of subjects: (0%) [0]
  All treatment emergent AEs, Severe: events: (0%) [0]
  All treatment emergent AEs, Severe: subjects: 0
  All treatment emergent AEs, Total: events: 43
  All treatment emergent AEs, Total: subjects: 12
  Constipation, drug-related AE: % of subjects: 6%
  Constipation, drug-related AE: events: 1
  Constipation, drug-related AE: subjects: 1
  Diarrhoea, drug-related AE: % of subjects: 6%
  Diarrhoea, drug-related AE: events: 1
  Diarrhoea, drug-related AE: subjects: 1
  Discontinued due to adverse events: % of subjects: (0%) [0]
  Discontinued due to adverse events: events: (0%) [0]
  Discontinued due to adverse events: subjects: 0
  Dizziness, drug-related AE: % of subjects: 25%
  Dizziness, drug-related AE: events: 5
  Dizziness, drug-related AE: subjects: 4
  Dysgeusia, drug-related AE: % of subjects: (0%) [0]
  Dysgeusia, drug-related AE: events: (0%) [0]
  Dysgeusia, drug-related AE: subjects: 0
  Fatigue, drug-related AE: % of subjects: 13%
  Fatigue, drug-related AE: events: 2
  Fatigue, drug-related AE: subjects: 2
  Feeling Hot, drug-related AE: % of subjects: (0%) [0]
  Feeling Hot, drug-related AE: events: (0%) [0]
  Feeling Hot, drug-related AE: subjects: 0
  Flushing, drug-related AE: % of subjects: 6%
  Flushing, drug-related AE: events: 1
  Flushing, drug-related AE: subjects: 1
  Gastrointestinal Disorders Total, drug-related AE: % of subjects: 31%
  Gastrointestinal Disorders Total, drug-related AE: events: 8
  Gastrointestinal Disorders Total, drug-related AE: subjects: 5
  General Disorders and Administration Site Conditions Total, drug-related AE: % of subjects: 13%
